# Test results reported in ChEMBL document CHEMBL5614409, “Discovery of potent HIV-1 NNRTIs by CuAAC click-chemistry-based miniaturized synthesis, rapid screening and structure optimization” (Eur J Med Chem, 2024).
# Test system: Human immunodeficiency virus 1
# Test: Antiviral activity against HIV1 IIIB harboring RES056 mutant infected in MT4 cells assessed as reduction in virus induced cytopathic effect incubated for 5 days by MTT method
# Format: functional, organism-based
# Settings: Human immunodeficiency virus 1, IIIB, MT4, 120 h
row,Compound,EC50
1,Cc1cc(C#N)cc(C)c1Oc1ccnc(NC2CCN(Cc3cn(CC(=O)NC4CC4)nn3)CC2)n1,2630 nM
2,Cc1cc(/C=C/C#N)cc(C)c1Oc1ccnc(NC2CCN(Cc3cn(Cc4ccc(B(O)O)cc4)nn3)CC2)n1,133 nM
3,Cc1cc(/C=C/C#N)cc(C)c1Oc1ccnc(NC2CCN(Cc3cn(CC(=O)N4CCOCC4)nn3)CC2)n1,1170 nM
4,CCNC(=O)Cn1cc(CN2CCC(Nc3nc(Oc4c(C)cc(/C=C/C#N)cc4C)c4ccsc4n3)CC2)nn1,55 nM

# Test system: not listed separately
# Test: Aqueous solubility of compound at pH 7 incubated for 24 hrs under shaking condition by HPLC method
# Format: physicochemical
# Settings: buffer
row,Compound,solubility thermodynamic at 24 h
1,CCNC(=O)Cn1cc(CN2CCC(Nc3nc(Oc4c(C)cc(/C=C/C#N)cc4C)c4ccsc4n3)CC2)nn1,25.1 µg/mL

# Test system: not listed separately
# Test: Aqueous solubility of compound at pH 7.4
# Settings: buffer
row,Compound,solubility
1,Cc1cc(/C=C/C#N)cc(C)c1Nc1ccnc(Nc2ccc(C#N)cc2)n1 [RILPIVIRINE],< 1 µg/mL

# Test system: Human immunodeficiency virus 1
# Test: Antiviral activity against HIV1 IIIB infected in MT4 cells assessed as reduction in virus induced cytopathic effect incubated for 5 days by MTT method
# Format: functional, organism-based
# Settings: Human immunodeficiency virus 1, IIIB, MT4, 120 h
row,Compound,EC50
1,COC(=O)Cn1cc(CN2CCC(Nc3nccc(Oc4c(C)cc(/C=C/C#N)cc4C)n3)CC2)nn1,36 nM
2,CCOC(=O)Cn1cc(CN2CCC(Nc3nccc(Oc4c(C)cc(/C=C/C#N)cc4C)n3)CC2)nn1,11 nM
3,Cc1cc(C#N)cc(C)c1Oc1ccnc(NC2CCN(Cc3cn(CC(=O)NC4CC4)nn3)CC2)n1,3 nM
4,Cc1cc(/C=C/C#N)cc(C)c1Oc1ccnc(NC2CCN(Cc3cn(Cc4ccc(B(O)O)cc4)nn3)CC2)n1,6 nM
5,COC(=O)CCCn1cc(CN2CCC(Nc3nccc(Oc4c(C)cc(C#N)cc4C)n3)CC2)nn1,10 nM
6,Cc1cc(/C=C/C#N)cc(C)c1Oc1ccnc(NC2CCN(Cc3cn(CC(=O)N4CCOCC4)nn3)CC2)n1,2 nM
7,CCNC(=O)Cn1cc(CN2CCC(Nc3nc(Oc4c(C)cc(/C=C/C#N)cc4C)c4ccsc4n3)CC2)nn1,4 nM

# Test system: Human immunodeficiency virus 1
# Test: Antiviral activity against HIV1 IIIB harboring Y188L mutant infected in MT4 cells assessed as fold increase in reduction of virus induced cytopathic effect incubated for 5 days by MTT method relative to A6N36
# Format: functional
# Settings: time 5 day
row,Compound,fold change (FC)
1,CCNC(=O)Cn1cc(CN2CCC(Nc3nc(Oc4c(C)cc(/C=C/C#N)cc4C)c4ccsc4n3)CC2)nn1,3

# Test system: Human immunodeficiency virus 1
# Test: Antiviral activity against HIV1 IIIB harboring F227L/V106A double mutant infected in MT4 cells assessed as reduction in virus induced cytopathic effect incubated for 5 days by MTT method
# Format: functional, organism-based
# Settings: Human immunodeficiency virus 1, IIIB, MT4, 120 h
row,Compound,EC50
1,Cc1cc(C#N)cc(C)c1Oc1ccnc(NC2CCN(Cc3cn(CC(=O)NC4CC4)nn3)CC2)n1,3270 nM
2,Cc1cc(/C=C/C#N)cc(C)c1Oc1ccnc(NC2CCN(Cc3cn(Cc4ccc(B(O)O)cc4)nn3)CC2)n1,99 nM
3,Cc1cc(/C=C/C#N)cc(C)c1Oc1ccnc(NC2CCN(Cc3cn(CC(=O)N4CCOCC4)nn3)CC2)n1,664 nM
4,CCNC(=O)Cn1cc(CN2CCC(Nc3nc(Oc4c(C)cc(/C=C/C#N)cc4C)c4ccsc4n3)CC2)nn1,36 nM

# Test system: Human immunodeficiency virus 1
# Test: Antiviral activity against HIV1 IIIB harboring L100I mutant infected in MT4 cells assessed as reduction in virus induced cytopathic effect incubated for 5 days by MTT method
# Format: functional, organism-based
# Settings: Human immunodeficiency virus 1, IIIB, MT4, 120 h
row,Compound,EC50
1,Cc1cc(C#N)cc(C)c1Oc1ccnc(NC2CCN(Cc3cn(CC(=O)NC4CC4)nn3)CC2)n1,150 nM
2,Cc1cc(/C=C/C#N)cc(C)c1Oc1ccnc(NC2CCN(Cc3cn(Cc4ccc(B(O)O)cc4)nn3)CC2)n1,9 nM
3,Cc1cc(/C=C/C#N)cc(C)c1Oc1ccnc(NC2CCN(Cc3cn(CC(=O)N4CCOCC4)nn3)CC2)n1,61 nM
4,CCNC(=O)Cn1cc(CN2CCC(Nc3nc(Oc4c(C)cc(/C=C/C#N)cc4C)c4ccsc4n3)CC2)nn1,7 nM

# Test system: not listed separately
# Test: Selectivity index, ratio of CC50 for human MT4 cells to EC50 for antiviral activity against HIV1 IIIB infected in MT4 cells
# Format: toxicity, cell-based
# Settings: read-out: Ratio CC50/EC50
row,Compound,selectivity ratio
1,COC(=O)Cn1cc(CN2CCC(Nc3nccc(Oc4c(C)cc(/C=C/C#N)cc4C)n3)CC2)nn1,732
2,CCOC(=O)Cn1cc(CN2CCC(Nc3nccc(Oc4c(C)cc(/C=C/C#N)cc4C)n3)CC2)nn1,1740
3,Cc1cc(C#N)cc(C)c1Oc1ccnc(NC2CCN(Cc3cn(CC(=O)NC4CC4)nn3)CC2)n1,12500
4,Cc1cc(/C=C/C#N)cc(C)c1Oc1ccnc(NC2CCN(Cc3cn(Cc4ccc(B(O)O)cc4)nn3)CC2)n1,825
5,COC(=O)CCCn1cc(CN2CCC(Nc3nccc(Oc4c(C)cc(C#N)cc4C)n3)CC2)nn1,2060
6,Cc1cc(/C=C/C#N)cc(C)c1Oc1ccnc(NC2CCN(Cc3cn(CC(=O)N4CCOCC4)nn3)CC2)n1,13300
7,CCNC(=O)Cn1cc(CN2CCC(Nc3nc(Oc4c(C)cc(/C=C/C#N)cc4C)c4ccsc4n3)CC2)nn1,5010

# Test system: not listed separately
# Test: Cytotoxicity against human MT4 cells assessed as reduction in cell viability incubated for 5 days by MTT method
# Format: toxicity, cell-based
# Settings: time 5 day
row,Compound,CC50 at 120 h
1,COC(=O)Cn1cc(CN2CCC(Nc3nccc(Oc4c(C)cc(/C=C/C#N)cc4C)n3)CC2)nn1,26200 nM
2,CCOC(=O)Cn1cc(CN2CCC(Nc3nccc(Oc4c(C)cc(/C=C/C#N)cc4C)n3)CC2)nn1,18800 nM
3,Cc1cc(C#N)cc(C)c1Oc1ccnc(NC2CCN(Cc3cn(CC(=O)NC4CC4)nn3)CC2)n1,31300 nM
4,Cc1cc(/C=C/C#N)cc(C)c1Oc1ccnc(NC2CCN(Cc3cn(Cc4ccc(B(O)O)cc4)nn3)CC2)n1,4620 nM
5,COC(=O)CCCn1cc(CN2CCC(Nc3nccc(Oc4c(C)cc(C#N)cc4C)n3)CC2)nn1,21300 nM
6,Cc1cc(/C=C/C#N)cc(C)c1Oc1ccnc(NC2CCN(Cc3cn(CC(=O)N4CCOCC4)nn3)CC2)n1,30500 nM
7,CCNC(=O)Cn1cc(CN2CCC(Nc3nc(Oc4c(C)cc(/C=C/C#N)cc4C)c4ccsc4n3)CC2)nn1,19000 nM

# Test system: not listed separately
# Test: Aqueous solubility of compound at pH 7
# Settings: buffer
row,Compound,solubility
1,Cc1cc(/C=C/C#N)cc(C)c1Nc1ccnc(Nc2ccc(C#N)cc2)n1 [RILPIVIRINE],< 1 µg/mL

# Test system: not listed separately
# Test: Aqueous solubility of compound at pH 2 incubated for 24 hrs under shaking condition by HPLC method
# Format: physicochemical
# Settings: buffer
row,Compound,solubility thermodynamic at 24 h
1,CCNC(=O)Cn1cc(CN2CCC(Nc3nc(Oc4c(C)cc(/C=C/C#N)cc4C)c4ccsc4n3)CC2)nn1,659 µg/mL

# Test system: Human immunodeficiency virus 1
# Test: Antiviral activity against HIV1 IIIB harboring Y181C mutant infected in MT4 cells assessed as reduction in virus induced cytopathic effect incubated for 5 days by MTT method
# Format: functional, organism-based
# Settings: Human immunodeficiency virus 1, IIIB, MT4, 120 h
row,Compound,EC50
1,Cc1cc(C#N)cc(C)c1Oc1ccnc(NC2CCN(Cc3cn(CC(=O)NC4CC4)nn3)CC2)n1,30 nM
2,Cc1cc(/C=C/C#N)cc(C)c1Oc1ccnc(NC2CCN(Cc3cn(Cc4ccc(B(O)O)cc4)nn3)CC2)n1,11 nM
3,Cc1cc(/C=C/C#N)cc(C)c1Oc1ccnc(NC2CCN(Cc3cn(CC(=O)N4CCOCC4)nn3)CC2)n1,17 nM
4,CCNC(=O)Cn1cc(CN2CCC(Nc3nc(Oc4c(C)cc(/C=C/C#N)cc4C)c4ccsc4n3)CC2)nn1,12 nM

# Biological target: Human immunodeficiency virus type 1 reverse transcriptase (Human immunodeficiency virus 1) (UniProt Q72547)
# Test: Inhibition of HIV-1 reverse transcriptase incubated for 2 hrs in presence of template and viral nucleotides by ELISA relative to control
# Set-up: concentration or dose not given beside the values
# Settings: concentration not given here
row,Compound,inhibition
1,COC(=O)Cn1cc(CN2CCC(Nc3nccc(Oc4c(C)cc(/C=C/C#N)cc4C)n3)CC2)nn1,91.7%
2,CCOC(=O)Cn1cc(CN2CCC(Nc3nccc(Oc4c(C)cc(/C=C/C#N)cc4C)n3)CC2)nn1,90.9%
3,Cc1cc(C#N)cc(C)c1Oc1ccnc(NC2CCN(Cc3cn(CC(=O)NC4CC4)nn3)CC2)n1,93.4%
4,Cc1cc(/C=C/C#N)cc(C)c1Oc1ccnc(NC2CCN(Cc3cn(Cc4ccc(B(O)O)cc4)nn3)CC2)n1,92.2%
5,COC(=O)CCCn1cc(CN2CCC(Nc3nccc(Oc4c(C)cc(C#N)cc4C)n3)CC2)nn1,90.7%
6,Cc1cc(/C=C/C#N)cc(C)c1Oc1ccnc(NC2CCN(Cc3cn(CC(=O)N4CCOCC4)nn3)CC2)n1,89.4%

# Test system: Human immunodeficiency virus 1
# Test: Antiviral activity against HIV1 IIIB harboring Y188L mutant infected in MT4 cells assessed as reduction in virus induced cytopathic effect incubated for 5 days by MTT method
# Format: functional, organism-based
# Settings: Human immunodeficiency virus 1, IIIB, MT4, 120 h
row,Compound,EC50
1,Cc1cc(C#N)cc(C)c1Oc1ccnc(NC2CCN(Cc3cn(CC(=O)NC4CC4)nn3)CC2)n1,399 nM
2,Cc1cc(/C=C/C#N)cc(C)c1Oc1ccnc(NC2CCN(Cc3cn(Cc4ccc(B(O)O)cc4)nn3)CC2)n1,78 nM
3,Cc1cc(/C=C/C#N)cc(C)c1Oc1ccnc(NC2CCN(Cc3cn(CC(=O)N4CCOCC4)nn3)CC2)n1,1260 nM
4,CCNC(=O)Cn1cc(CN2CCC(Nc3nc(Oc4c(C)cc(/C=C/C#N)cc4C)c4ccsc4n3)CC2)nn1,29 nM

# Test system: Human immunodeficiency virus 1
# Test: Antiviral activity against HIV1 IIIB harboring K103 N mutant infected in MT4 cells assessed as reduction in virus induced cytopathic effect incubated for 5 days by MTT method
# Format: functional, organism-based
# Settings: Human immunodeficiency virus 1, IIIB, MT4, 120 h
row,Compound,EC50
1,Cc1cc(C#N)cc(C)c1Oc1ccnc(NC2CCN(Cc3cn(CC(=O)NC4CC4)nn3)CC2)n1,19 nM
2,Cc1cc(/C=C/C#N)cc(C)c1Oc1ccnc(NC2CCN(Cc3cn(Cc4ccc(B(O)O)cc4)nn3)CC2)n1,4 nM
3,Cc1cc(/C=C/C#N)cc(C)c1Oc1ccnc(NC2CCN(Cc3cn(CC(=O)N4CCOCC4)nn3)CC2)n1,3 nM

# Biological target: Human immunodeficiency virus type 1 reverse transcriptase (Human immunodeficiency virus 1, UniProt Q72547)
# Test: Inhibition of HIV-1 reverse transcriptase assessed as reduction in biotin-dUTP incorporation incubated for 2 hrs in presence of template and viral nucleotides by ELISA
# Settings: not given
row,Compound,IC50
1,COC(=O)Cn1cc(CN2CCC(Nc3nccc(Oc4c(C)cc(/C=C/C#N)cc4C)n3)CC2)nn1,52 nM
2,CCOC(=O)Cn1cc(CN2CCC(Nc3nccc(Oc4c(C)cc(/C=C/C#N)cc4C)n3)CC2)nn1,54 nM
3,Cc1cc(C#N)cc(C)c1Oc1ccnc(NC2CCN(Cc3cn(CC(=O)NC4CC4)nn3)CC2)n1,62 nM
4,Cc1cc(/C=C/C#N)cc(C)c1Oc1ccnc(NC2CCN(Cc3cn(Cc4ccc(B(O)O)cc4)nn3)CC2)n1,96 nM
5,COC(=O)CCCn1cc(CN2CCC(Nc3nccc(Oc4c(C)cc(C#N)cc4C)n3)CC2)nn1,56 nM
6,Cc1cc(/C=C/C#N)cc(C)c1Oc1ccnc(NC2CCN(Cc3cn(CC(=O)N4CCOCC4)nn3)CC2)n1,59 nM
7,CCNC(=O)Cn1cc(CN2CCC(Nc3nc(Oc4c(C)cc(/C=C/C#N)cc4C)c4ccsc4n3)CC2)nn1,210 nM

# Test system: Human immunodeficiency virus 1
# Test: Antiviral activity against HIV1 IIIB harboring E138K mutant infected in MT4 cells assessed as reduction in virus induced cytopathic effect incubated for 5 days by MTT method
# Format: functional, organism-based
# Settings: Human immunodeficiency virus 1, IIIB, MT4, 120 h
row,Compound,EC50
1,Cc1cc(C#N)cc(C)c1Oc1ccnc(NC2CCN(Cc3cn(CC(=O)NC4CC4)nn3)CC2)n1,28 nM
2,Cc1cc(/C=C/C#N)cc(C)c1Oc1ccnc(NC2CCN(Cc3cn(Cc4ccc(B(O)O)cc4)nn3)CC2)n1,19 nM
3,Cc1cc(/C=C/C#N)cc(C)c1Oc1ccnc(NC2CCN(Cc3cn(CC(=O)N4CCOCC4)nn3)CC2)n1,10 nM
4,CCNC(=O)Cn1cc(CN2CCC(Nc3nc(Oc4c(C)cc(/C=C/C#N)cc4C)c4ccsc4n3)CC2)nn1,17 nM

# Test system: not listed separately
# Test: Aqueous solubility of compound at pH 7.4 incubated for 24 hrs under shaking condition by HPLC method
# Format: physicochemical
# Settings: buffer
row,Compound,solubility thermodynamic at 24 h
1,CCNC(=O)Cn1cc(CN2CCC(Nc3nc(Oc4c(C)cc(/C=C/C#N)cc4C)c4ccsc4n3)CC2)nn1,22.6 µg/mL
